In one experiment the test system is serum metabolites. The experiment is described as follows: Metabolites in serum of AAP-administered mice vs control mice, measured by CE-TOFMS. The class given is in vivo. As to the method: Male mice fasted overnight were anesthetized by intraperitoneal injection of pentobarbital sodium (60 mg per Kg body weight). […] Metabolites having a mass of 1000 or less were comprehensively measured using CE-TOFMS under measuring conditions for cationic metabolites and anionic metabolites. As a capillary, a fused silica capillary having an inner diameter of 50 μm, an outer diameter of 350 μm, and a total length of 100 cm was used. As a buffer, 1 M formic acid (pH is about 1.8) was used. Measurement was performed with an applied voltage of +30 kV and a capillary temperature of 20° C. A sample was injected at 50 mbar for 3 seconds using the pressure method. In TOFMS, the positive ion mode was employed and the ionization, fragmentor, skimmer, and Oct RFV voltages were set at 4 kV, 75 V, 50 V, and 125 V, respectively. Nitrogen was used as a drying gas, which was set at a temperature of 300° C. and a pressure of 10 psig. Methanol solution (50%) was used as a sheath liquid. To this solution, reserpine (m/z 609.2807) was added at 0.5 μM for mass calibration and the solution was delivered at 10μ/min. All the obtained data were automatically calibrated using the mass of reserpine (m/z 609.2807) and methanol adduct ion (m/z 83.0703). As a capillary, SMILE(+) capillary having an inner diameter of 50 μm, an outer diameter of 350 μm, and a total length of 100 cm was used. As a buffer, 50 mM ammonium acetate (pH 8.5) was used. Measurement was performed with an applied voltage of -30 kV and a capillary temperature of 20° C. A sample was injected at 50 mbar for 30 seconds using the pressure method. In TOFMS, the negative ion mode was employed and the ionization, fragmentor, skimmer, and Oct RFV voltage were set at 3.5 kV, 100 V, 50 V, and 200 V, respectively. Nitrogen was used as a drying gas, which was set at a temperature of 300° C. and a pressure of 10 psig. Ammonium acetate (5 mM) in 50% methanol solution was used as a sheath liquid. To this solution, 20 μM PIPES and 1 μM reserpine (m/z 609.2807) was added for mass calibration and was delivered at 10μ/min. […]

Experiment [1] relates to glutathione biosynthesis pathway in the liver. The experiment is described as follows: Metabolites in liver of agent-administered mice vs control mice, measured by CE-TOFMS. It is filed as in vivo. As to the method:
Male mice fasted overnight were anesthetized by intraperitoneal injection of pentobarbital sodium (60 mg per Kg body weight). […] The liver (about 300 mg) harvested from mice was immediately plunged into 1 ml of methanol containing internal standards and homogenized to inactivate enzymes and stop increase in metabolism Then, 500 μl of pure water was added and 300 μl of the solution was collected. 200 μl of chloroform was added to the solution, which was then thoroughly mixed. The solution was centrifuged at 15000 rpm at 4° C. for 15 minutes. After left standing, the separated 300 μl-water-methanol phase was centrifugally filtered through an ultrafiltration filter (5 kDa cutoff) to remove proteins. The filtrate was lyophilized and 50 μl of […]® ultrapure water was added thereto prior to CE-MS (CE-TOFMS) analysis. Metabolites having a mass of 1000 or less were comprehensively measured using CE-TOFMS under measuring conditions for cationic metabolites and anionic metabolites. As a capillary, a fused silica capillary having an inner diameter of 50 μm, an outer diameter of 350 μm, and a total length of 100 cm was used. As a buffer, 1 M formic acid (pH is about 1.8) was used. Measurement was performed with an applied voltage of +30 kV and a capillary temperature of 20° C. A sample was injected at 50 mbar for 3 seconds using the pressure method. In TOFMS, the positive ion mode was employed and the ionization, fragmentor, skimmer, and Oct RFV voltages were set at 4 kV, 75 V, 50 V, and 125 V, respectively. Nitrogen was used as a drying gas, which was set at a temperature of 300° C. and a pressure of 10 psig. Methanol solution (50%) was used as a sheath liquid. To this solution, reserpine (m/z 609.2807) was added at 0.5 μM for mass calibration and the solution was delivered at 10μ/min. All the obtained data were automatically calibrated using the mass of reserpine (m/z 609.2807) and methanol adduct ion (m/z 83.0703). As a capillary, SMILE(+) capillary having an inner diameter of 50 μm, an outer diameter of 350 μm, and a total length of 100 cm was used. As a buffer, 50 mM ammonium acetate (pH 8.5) was used. Measurement was performed with an applied voltage of -30 kV and a capillary temperature of 20° C. A sample was injected at 50 mbar for 30 seconds using the pressure method. In TOFMS, the negative ion mode was employed and the ionization, fragmentor, skimmer, and Oct RFV voltage were set at 3.5 kV, 100 V, 50 V, and 200 V, respectively. Nitrogen was used as a drying gas, which was set at a temperature of 300° C. and a pressure of 10 psig. Ammonium acetate (5 mM) in 50% methanol solution was used as a sheath liquid. To this solution, 20 μM PIPES and 1 μM reserpine (m/z 609.2807) was added for mass calibration and was delivered at 10μ/min. All the obtained data were automatically calibrated using the mass of reserpine (m/z 609.2807), monovalent PIPES (m/z 301.0534), and divalent PIPES (m/z 150.0230). […] The extracts were comprehensively and quantitatively analyzed with a capillary electrophoresis-mass spectrometer (CE-MS) or the like. […] Ophthalmic acid preparation was obtained and compared with the unknown substance.

Where [2] appears, read: at 1 and 2 hours after administration (time course).
[3] abbreviates: time course 1-24 hours after administration.
The mark [4] stands for this setting: 2 hours after administration, vs control mice.

SMILES strings stand for the structures.

Turning to `CC(=O)Nc1ccc(O)cc1` [AAP, Acetaminophen], the “ophthalmic acid in serum” value in the experiment on serum metabolites (setting [2]) is “dramatically increased”. For the same compound, in the experiment with serum metabolites (setting [3]), the GSH in serum result is reported as “not detected” and the GSSH in serum entry was “a behavior similar to that of GSH in liver”. In experiment [1] (setting [4]), the GSH in liver result is given as “Dramatically decreased”, the “all the substances in the glutathione biosynthesis pathway in the liver” value was “decrease”, the “ophthalmic acid in liver” value is “increase” and the “oxidized glutathione (GSSG) in liver” value is given as “Dramatically decreased”. In addition, the “γ-Glu-2-aminobutyric acid (γ-Glu-2AB) in liver” value in experiment [1] (setting [4]) is listed as “increase”. Moreover, in experiment [1] (setting [2]), the GSH in liver result is listed as “rapidly decreased” and the “ophthalmic acid in liver” value is reported as “dramatically increased”. Also, the GSSH in liver entry in experiment [1] (setting [3]) was “a behavior similar to that of GSH in liver”.
For `CCCCS(=N)(=O)CCC(N)C(=O)O` (stereo not drawn) [BSO, buthionine sulfoximine], in experiment [1] (setting [4]), the GSH in liver entry is on record as “remarkably decreased”, the “ophthalmic acid in liver” value is reported as “remarkably decreased”, the “γ-Glu-2-aminobutyric acid (γ-Glu-2AB) in liver” value is given as “remarkably decreased” and the γ-Glu-Cys in liver result is on record as “remarkably decreased”.
